Laboratory results from patent USRE48687E1, “Pyridinylaminopyrimidine derivatives, preparation process and use thereof” (Shanghai Allist Pharmaceuticals Co., Ltd., priority 2014, dated 2021).
pIC50: −log10 of the molar value.

Experiments:
Format in all cases: cell-based
[1] = test system: human lung cancer cell (H1975, EGFR L858R/T790M resistant mutation); assay: Proliferation inhibition (SRB) on human lung cancer cell H1975; conditions: Homo sapiens, NCI-H1975, 72 h, SRB staining
Excerpt: (§1) The pharmacodynamic action of the compound of the present invention in terms of inhibiting the proliferation of cancer cells may be assayed by conventional methods. […] Inhibition ratio (%)=[(blank control OD−inhibitor OD)/blank control OD]×100%
(§2) Blank control OD: the OD value of the well of normally growed cells without the action of a drug.
(§3) Inhibitor OD: the OD value of the well of cells with the action of the added compounds to be screened.
(§4) The median inhibitory concentration (IC50) value is obtained by the software GraphPad Prism 5.0 by the 4-parameter logistic curve fit calculation. Each experiment is repeated three times, and the average IC50 value for three experiments is used as the final index for the inhibitory ability.
(§5) Cells in the logarithmic phase were inoculated to 96-well culture plates (cell density: 5000/well, cell suspension: 180 μl/well), and cultured at 37° C. under 5% CO2 for 24 hours. After the culturing, the cells adhered to the well walls. Each of compounds was dissolved in DMSO in advance to formulate a […] stock solution. Upon testing, the stock solution was diluted with complete medium to 10 times the target concentration in another 96-cell plate. And then the compound was added at 20 μl/cell in the 96-well plate in which the cells were inoculated, i.e. the target concentration could be reached. The well for each concentration was triplicated, and the blank control was established. Cells continued to be cultured at 37° C. under 5% CO2 for 72 hours. After the termination of culturing, 50 μl pre-cooled (4° C.) 50% trichloroacetic acid, i.e., TCA was added to each of wells (final concentration=10%), and was placed at 4° C. for 1 hour to fix the cells. The resulting matter was washed with purified water for at least 5 times, and dried naturally in air or at 60° C. in an oven. 4 mg/ml Sulforhodamine B (SRB) solution prepared by 1% glacial acetic acid/purified water was added at 100 μl/well to each well so as to stain for 1 hour at room temperature. The supernatant was discarded. The residue was washed with 1% acetic acid for at least 5 times to remove the non-specifically binding, and dried for use. To each well was added 150 μl of 10 mM Tris-HCl solution for dissolving the contents therein.

[2] = test system: human skin cancer cell (A431, wild-type EGFR); assay: Proliferation inhibition (SRB) on human skin cancer cell A431; conditions: Homo sapiens, A-431, 72 h, SRB staining
Excerpt: as §1, §2, §3, §4, §5

[3] = test system: human lung cancer cell (HCC827, EGFR Exon 19 deletion activating mutation); assay: Proliferation inhibition (SRB) on human lung cancer cell HCC827; conditions: Homo sapiens, HCC827, 72 h, SRB staining
Excerpt: as §1, §2, §3, §4, §5

pIC50 [1]	pIC50 [2]	pIC50 [3]	SMILES
8.59	6.68	8.58	C=CC(=O)Nc1cc(Nc2ncc(Cl)c(-c3cn(C)c4ncccc34)n2)c(OC(C)C)nc1N(C)CCN(C)C [Example 19 compound, N-{2-{[2-(dimethylamino)ethyl](methyl)amino}-6-isopropyloxy-5-{[5-chloro-4-(1-methyl-1H-pyrrolo[2,3-b]pyridin-3-yl)pyrimidin-2-yl]amino}pyridin-3-yl}acrylamide]
7.37	6.10	8.05	C=CC(=O)Nc1cc(Nc2ncc(Cl)c(-c3cnc4c(ccn4C)c3)n2)c(OC(C)C)nc1N(C)CCN(C)C [Example 20 compound, N-{2-{[2-(dimethylamino)ethyl](methyl)amino}-6-isopropyloxy-5-{[5-chloro-4-(1-methyl-1H-pyrrolo[2,3-b]pyridin-5-yl)pyrimidin-2-yl]amino}pyridin-3-yl}acrylamide]
7.73	6.43	6.85	C=CC(=O)Nc1cc(Nc2ncc(Cl)c(-c3cnn(C)c3)n2)c(OC(C)C)nc1N(C)CCN(C)C [Example 21 compound, N-{2-{[2-(dimethylamino)ethyl](methyl)amino}-6-isopropyloxy-5-{[5-chloro-4-(1-methyl-1H-pyrazol-4-yl)pyrimidin-2-yl]amino}pyridin-3-yl}acrylamide]
7.42	5.56	7.48	C=CC(=O)Nc1cc(Nc2ncc(Cl)c(-c3cnc(OC)nc3)n2)c(OC(C)C)nc1N(C)CCN(C)C [Example 22 compound, N-{2-{[2-(dimethylamino)ethyl](methyl)amino}-6-isopropyloxy-5-{[5-chloro-2′-methoxy-(4,5′-bipyrimidine)-2-yl]amino}pyridin-3-yl}acrylamide]
7.51	5.94	8.51	C=CC(=O)Nc1cc(Nc2ncc(Cl)c(-c3cnc(N)nc3)n2)c(OC(C)C)nc1N(C)CCN(C)C [Example 23 compound, N-{2-{[2-(dimethylamino)ethyl](methyl)amino}-6-isopropyloxy-5-{[5-chloro-2′-amino-(4,5′-bipyrimidine)-2-yl]amino}pyridin-3-yl}acrylamide]
